ChEMBL document CHEMBL1132776, “(E) -6-(1-alkyloxyiminoalkyl)-5,8-dimethoxy-1,4-naphthoquinones: synthesis, cytotoxic activity and antitumor activity” (2000)
Converted amounts (≈) assume the structure as drawn.

Experiments:
A549 = experiment: The compound was evaluated for antiproliferative activity against A549 cell line; assay type: functional; conditions: Homo sapiens, read-out: ED50 (the source's name)
L1210 = experiment: The compound was evaluated for antiproliferative activity against L1210 cell line; assay type: functional; conditions: Mus musculus, read-out: ED50 (the source's name)
Mus musculus = organism: Mus musculus; experiment: Survival ratio (SR) is the number of mice surviving after 80 days among 8 mice; assay type: functional
CCRF S-180 = experiment: Percent ratio of treated to control mice after intraperitoneal injection of 1x10E7 S180 cells for antitumor activity was determined; assay type: functional, Mus musculus

**Q.** Which results are given for `CCCO/N=C/c1cc(OC)c2c(c1OC)C(=O)C=CC2=O`?
**A.** EC50 (A549): > 10 µg/mL; EC50 (L1210): 0.107 µg/mL (≈ 0.353 µM); Survival ratio (Mus musculus): 2; T/C (CCRF S-180): 229%

**Q.** With `CCCCCCCCCCCCO/N=C/c1cc(OC)c2c(c1OC)C(=O)C=CC2=O` as the compound, how does the EC50 (A549) read?
**A.** > 10 µg/mL

**Q.** And the EC50 (L1210)?
**A.** 0.311 µg/mL (≈ 0.724 µM)

**Q.** What about the Survival ratio (Mus musculus) of the same compound?
**A.** 0

**Q.** What about the T/C (CCRF S-180) of the same compound?
**A.** 119%

**Q.** Which EC50 (A549) does the source give for `CCCCCCCO/N=C/c1cc(OC)c2c(c1OC)C(=O)C=CC2=O` here?
**A.** > 10 µg/mL

**Q.** What about the EC50 (L1210) of the same compound?
**A.** 0.213 µg/mL (≈ 0.593 µM)

**Q.** What about the Survival ratio (Mus musculus) of the same compound?
**A.** 5

**Q.** What about the T/C (CCRF S-180) of the same compound?
**A.** 355%

**Q.** What does the source list for `CCCCCC/C(=N\OCCCCC)c1cc(OC)c2c(c1OC)C(=O)C=CC2=O`?
**A.** EC50 (A549): > 10 µg/mL; EC50 (L1210): 0.224 µg/mL (≈ 0.539 µM); Survival ratio (Mus musculus): 5; T/C (CCRF S-180): 363%

**Q.** What does the source list for `CCCCCCCO/N=C(\CCCCCC)c1cc(OC)c2c(c1OC)C(=O)C=CC2=O`?
**A.** EC50 (A549): > 10 µg/mL; EC50 (L1210): 0.162 µg/mL (≈ 0.365 µM); Survival ratio (Mus musculus): 5; T/C (CCRF S-180): 375%

**Q.** Which results are given for `CCCCCCCCCO/N=C(\CCCCCC)c1cc(OC)c2c(c1OC)C(=O)C=CC2=O`?
**A.** EC50 (A549): > 10 µg/mL; EC50 (L1210): 1.15 µg/mL (≈ 2.43 µM); Survival ratio (Mus musculus): 0; T/C (CCRF S-180): 96%

**Q.** What does the source list for `CCCCCCCCCO/N=C/c1cc(OC)c2c(c1OC)C(=O)C=CC2=O`?
**A.** EC50 (A549): > 10 µg/mL; EC50 (L1210): 0.19 µg/mL (≈ 0.49 µM); Survival ratio (Mus musculus): 5; T/C (CCRF S-180): 355%

**Q.** For `CO/N=C/c1cc(OC)c2c(c1OC)C(=O)C=CC2=O`, which EC50 (A549) is on record?
**A.** > 10 µg/mL

**Q.** And the EC50 (L1210)?
**A.** 0.109 µg/mL (≈ 0.396 µM)

**Q.** What about the Survival ratio (Mus musculus) of the same compound?
**A.** 2

**Q.** What about the T/C (CCRF S-180) of the same compound?
**A.** 318%

**Q.** Which EC50 (A549) does the source give for `CCCCCO/N=C/c1cc(OC)c2c(c1OC)C(=O)C=CC2=O` here?
**A.** > 10 µg/mL

**Q.** And the EC50 (L1210)?
**A.** 0.175 µg/mL (≈ 0.528 µM)

**Q.** And the Survival ratio (Mus musculus)?
**A.** 5

**Q.** What about the T/C (CCRF S-180) of the same compound?
**A.** 388%

**Q.** What does the source list for `CCCCCC/C(=N\OC)c1cc(OC)c2c(c1OC)C(=O)C=CC2=O`?
**A.** EC50 (A549): > 10 µg/mL; EC50 (L1210): 0.192 µg/mL (≈ 0.534 µM); Survival ratio (Mus musculus): 5; T/C (CCRF S-180): 323%

**Q.** For `CCCCCC/C(=N\OCCC)c1cc(OC)c2c(c1OC)C(=O)C=CC2=O`, which EC50 (A549) is on record?
**A.** > 10 µg/mL

**Q.** And the EC50 (L1210)?
**A.** 0.166 µg/mL (≈ 0.428 µM)

**Q.** What about the Survival ratio (Mus musculus) of the same compound?
**A.** 5

**Q.** What about the T/C (CCRF S-180) of the same compound?
**A.** 369%

**Q.** With `CCCCCCCCCCCCO/N=C(\CCCCCC)c1cc(OC)c2c(c1OC)C(=O)C=CC2=O` as the compound, how does the EC50 (A549) read?
**A.** > 10 µg/mL

**Q.** What about the EC50 (L1210) of the same compound?
**A.** 0.193 µg/mL (≈ 0.376 µM)

**Q.** What about the Survival ratio (Mus musculus) of the same compound?
**A.** 2

**Q.** What about the T/C (CCRF S-180) of the same compound?
**A.** 231%

**Q.** `COc1cc(/C=N/OCc2ccccc2)c(OC)c2c1C(=O)C=CC2=O` was tested. Which EC50 (A549) did it give?
**A.** > 10 µg/mL

**Q.** And the EC50 (L1210)?
**A.** 0.264 µg/mL (≈ 0.751 µM)

**Q.** And the Survival ratio (Mus musculus)?
**A.** 4

**Q.** And the T/C (CCRF S-180)?
**A.** 331%

**Q.** With `COc1cccc2c1C(=O)c1c(O)c3c(c(O)c1C2=O)C[C@@](O)(C(=O)CO)C[C@@H]3O[C@H]1C[C@H](N)[C@H](O)[C@H](C)O1` [DOXORUBICIN] as the compound, how does the EC50 (A549) read?
**A.** 1.01 µg/mL (≈ 1.86 µM)

**Q.** And the EC50 (L1210)?
**A.** 0.016 µg/mL (≈ 0.0294 µM)

**Q.** And the Survival ratio (Mus musculus)?
**A.** 3

**Q.** And the T/C (CCRF S-180)?
**A.** 315%
